Experimental data: US6569865B2, “Spiro 1-azabicyclo[2.2.2]octane-3,2′(3′h)-furo[2,3-b]pyridine” (priority 2001, dated 2003)

What was measured:
[1] = target: α7 nAChR (Rattus norvegicus, UniProt Q05941); experiment: Test A: 125I-α-bungarotoxin binding to rat hippocampal membranes (affinity at α7 nAChR subtype)
Description: Test A—Assay for Affinity at α7 nAChR Subtype
125I-α-Bungarotoxin (BTX) binding to rat hippocampal membranes. Rat hippocampi were homogenized in 20 volumes of cold homogenization buffer (HB: concentrations of constituents (mM): tris(hydroxymethyl)aminomethane 50; MgCl2 1; NaCl 120; KCl 5: pH 7.4). The homogenate was centrifuged for 5 minutes at 1000 g, the supernatant was saved and the pellet re-extracted. The pooled supernatants were centrifuged for 20 minutes at 12000 g, washed, and resuspended in HB. Membranes (30-80 μg) were incubated with 5 nM [^125I]α-BTX, 1 mg/mL BSA (bovine serum albumin), test drug, and either 2 mM CaCl2 or 0.5 mM EGTA [ethylene glycol-bis(β-aminoethylether)] for 2 hours at 21° C., and then filtered and washed 4 times over Whatman glass fibre filters (thickness C) using a Brandel cell harvester. […]
IC50 values and pseudo Hill coefficients (nH) were calculated using the non-linear curve-fitting program ALLFIT (DeLean A, Munson P J and Rodbard D (1977) Am. J. Physiol., 235:E97-E102). […]
where a value of n=1 was used whenever nH<1.5 and a value of n=2 was used when nH≧1.5. […] Ki values were determined using 6 or more drug concentrations. […]

[2] = target: α4 nAChR (Rattus norvegicus, UniProt P09483+P12390); assay type: binding
α4 nAChR, sequence (P09483 31-630): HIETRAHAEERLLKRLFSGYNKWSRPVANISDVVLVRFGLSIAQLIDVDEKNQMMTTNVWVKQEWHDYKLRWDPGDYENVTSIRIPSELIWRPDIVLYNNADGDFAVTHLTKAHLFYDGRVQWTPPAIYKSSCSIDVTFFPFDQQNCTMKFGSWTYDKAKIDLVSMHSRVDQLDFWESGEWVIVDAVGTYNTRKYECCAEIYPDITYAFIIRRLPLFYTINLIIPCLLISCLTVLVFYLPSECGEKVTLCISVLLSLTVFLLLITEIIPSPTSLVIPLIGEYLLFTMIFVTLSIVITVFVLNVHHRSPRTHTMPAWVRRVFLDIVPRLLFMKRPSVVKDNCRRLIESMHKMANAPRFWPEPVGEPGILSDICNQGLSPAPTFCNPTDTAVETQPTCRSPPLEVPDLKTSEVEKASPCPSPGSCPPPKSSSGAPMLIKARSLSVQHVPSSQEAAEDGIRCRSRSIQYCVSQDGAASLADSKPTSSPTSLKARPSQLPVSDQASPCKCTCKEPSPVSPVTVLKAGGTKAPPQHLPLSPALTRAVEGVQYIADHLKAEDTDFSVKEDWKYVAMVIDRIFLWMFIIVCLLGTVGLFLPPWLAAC
α4 nAChR, sequence (P12390 25-500): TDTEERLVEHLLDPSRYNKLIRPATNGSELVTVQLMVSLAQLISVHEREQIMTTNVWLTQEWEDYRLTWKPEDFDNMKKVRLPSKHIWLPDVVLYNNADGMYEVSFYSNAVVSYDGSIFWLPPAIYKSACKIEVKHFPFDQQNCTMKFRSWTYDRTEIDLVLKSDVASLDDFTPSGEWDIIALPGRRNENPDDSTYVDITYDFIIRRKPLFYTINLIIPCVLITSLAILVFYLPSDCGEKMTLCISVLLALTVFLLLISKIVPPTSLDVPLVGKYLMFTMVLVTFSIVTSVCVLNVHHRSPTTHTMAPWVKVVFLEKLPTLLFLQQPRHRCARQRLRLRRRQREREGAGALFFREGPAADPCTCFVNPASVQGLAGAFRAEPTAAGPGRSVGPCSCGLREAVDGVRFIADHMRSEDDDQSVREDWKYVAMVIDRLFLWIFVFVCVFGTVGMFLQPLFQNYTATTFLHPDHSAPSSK
Description: Binding Data Analysis for Tests A and B
Ki values were determined using 6 or more drug concentrations.

α7 nAChR, sequence (Q05941 23-502): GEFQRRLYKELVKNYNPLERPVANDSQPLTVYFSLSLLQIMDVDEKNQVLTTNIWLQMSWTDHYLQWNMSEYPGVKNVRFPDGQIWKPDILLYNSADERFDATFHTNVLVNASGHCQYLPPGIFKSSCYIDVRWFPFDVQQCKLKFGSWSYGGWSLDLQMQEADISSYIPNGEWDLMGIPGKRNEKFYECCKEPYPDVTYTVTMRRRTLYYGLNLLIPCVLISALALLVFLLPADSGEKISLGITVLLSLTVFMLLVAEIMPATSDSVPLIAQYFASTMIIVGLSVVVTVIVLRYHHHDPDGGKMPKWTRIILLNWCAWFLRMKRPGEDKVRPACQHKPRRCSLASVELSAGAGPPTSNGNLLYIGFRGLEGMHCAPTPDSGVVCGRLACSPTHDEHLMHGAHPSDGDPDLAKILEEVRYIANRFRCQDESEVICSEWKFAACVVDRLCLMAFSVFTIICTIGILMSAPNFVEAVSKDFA

125I-α-Bungarotoxin [Compound 125I-α-BTX, reference compound]
Kd ([1]; read-out: KD of radioligand from saturation curves (one site model)): 1670 pM

c1cc(-c2cnc3c(c2)C[C@@]2(CN4CCC2CC4)O3)co1 [Compound 3, (2′R)-5′-(3-furanyl)spiro[1-azabicyclo[2.2.2]octane-3,2′(3′H)-furo[2,3-b]pyridine]]
Ki ([1]; 125I-α-BTX displacement, rat hippocampal membranes): 0.033 nM | nAChR Binding Selectivity (Ratio α4 Ki/α7 Ki) [2]: 88000
